Non-standard residues stand in square brackets, D forms with d. Residues, ends and D or L forms follow the SMILES beside them. *: point of attachment. Tyr(Nα-amidino) = N=C(N)N[C@@H](Cc1ccc(O)cc1)C(=O)*; dNle = CCCC[C@@H](N)C(=O)O
How the values were obtained:
Assay type in all cases: cell-based
guinea-pig ileum (GPI) [1] = test: GPI assay according to Kosterlitz et al. (opiate activity); settings: guinea-pig ileum preparation; assay of Kosterlitz et al. 1970; relative to normorphine = 1.0
Description: (§1) 39, 398 (1970)] and in mouse ves deferens (MVD) preparations [J. Hughes et al.: Br. J. Pharmacol. 53, 371 (1975)]. […] The figures represent the activities of compounds relative to […] (the activity of normorphine is taken as unity=1.0).
^b GPI assay according to Kosterlitz et al. [Br. J. Pharmacol. 39, 39

guinea-pig ileum (GPI) [2] = test: GPI assay according to Kosterlitz and Watt (opiate activity); settings: guinea-pig ileum preparation; assay of Kosterlitz and Watt 1968; relative to normorphine = 1.0
Description: as §1
^a GPI assay according to Kosterlitz and Watt [Br.J. Pharmacol. 33,

mouse vas deferens (MVD) = test: MVD assay according to Hughes et al. (opiate activity); settings: mouse vas deferens preparation; assay of Hughes et al. 1975; relative to normorphine = 1.0
Description: as §1
^c MVD assay according to Hughes et al. [Br. J. Pharmacol. 53, 371

Structure (SMILES) | Opiate activity GPI^b (opiate activity of normorphine = 1.0) (guinea-pig ileum (GPI) [1]) | Opiate activity GPI^a (opiate activity of normorphine = 1.0) (guinea-pig ileum (GPI) [2]) | Opiate activity MVD^c (opiate activity of normorphine = 1.0) (mouse vas deferens (MVD))
CSCC[C@@H](NC(=O)[C@H](Cc1ccc(O)cc1)NC(=N)N)C(=O)NCC(=O)N[C@@H](Cc1ccccc1)C(N)=O [H2 N-C-(NH)-Tyr-D-Met-Gly-Phe-NH2, amidino-L-tyrosyl-D-methionyl-glycyl-L-phenylalanine amide] | 79 | 211 | 21
CSCC[C@@H](NC(=O)[C@H](Cc1ccc(O)cc1)NC(=N)N)C(=O)NCC(=O)N[C@@H](Cc1ccccc1)C(=O)N1CCC[C@H]1C(N)=O [H2 N-C-(NH)-Tyr-D-Met-Gly-Phe-Pro-NH2, amidino-L-tyrosyl-D-methionyl-glycyl-L-phenylalanyl-L-proline amide] ({Tyr(Nα-amidino)}-[dM]GFP-NH2) | 173 | 825 | 25
CCCC[C@@H](NC(=O)[C@H](Cc1ccc(O)cc1)NC(=N)N)C(=O)NCC(=O)N[C@@H](Cc1ccccc1)C(N)=O [H2 N-C-(NH)-Tyr-D-Nle-Gly-Phe-NH2, amidino-L-tyrosyl-D-norleucyl-glycyl-L-phenylalanine amide] | 79 | 126 | 18
CCCC[C@@H](NC(=O)[C@H](Cc1ccc(O)cc1)NC(=N)N)C(=O)NCC(=O)N[C@@H](Cc1ccccc1)C(=O)N1CCC[C@H]1C(N)=O [H2 N-C-(NH)-Tyr-D-Nle-Gly-Phe-Pro-NH2, amidino-L-tyrosyl-D-norleucyl-glycyl-L-phenylalanyl-L-proline amide] ({Tyr(Nα-amidino)}-[dNle]GFP-NH2) | 21 | 79 | 17
CC(=O)O.CSCC[C@@H](NC(=O)[C@@H](N)Cc1ccc(O)cc1)C(=O)NCC(=O)N[C@@H](Cc1ccccc1)C(N)=O.O [H-Tyr-D-Met-Gly-Phe-NH2, L-Tyrosyl-D-methionyl-glycyl-L-phenylalanine amide acetate hydrate] (H-Y[dM]GF-NH2) | 17 | 17 | 4
CC(=O)O.CSCC[C@@H](NC(=O)[C@@H](N)Cc1ccc(O)cc1)C(=O)NCC(=O)N[C@@H](Cc1ccccc1)C(=O)N1CCC[C@H]1C(N)=O.O.O.O [H-Tyr-D-Met-Gly-Phe-Pro-NH2, L-tyrosyl-D-methionyl-glycyl-L-phenylalanyl-proline amide acetate trihydrate] (H-Y[dM]GFP-NH2) | 8 | 8 | 8
CC(=O)O.CCCC[C@@H](NC(=O)[C@@H](N)Cc1ccc(O)cc1)C(=O)NCC(=O)N[C@@H](Cc1ccccc1)C(N)=O.O [H-Tyr-D-Nle-Gly-Phe-NH2, L-Tyrosyl-D-norleucyl-glycyl-L-phenylalanine amide acetate hydrate] (H-Y[dNle]GF-NH2) | 22 | 22 | 8
CC(=O)O.CCCC[C@@H](NC(=O)[C@@H](N)Cc1ccc(O)cc1)C(=O)NCC(=O)N[C@@H](Cc1ccccc1)C(=O)N1CCC[C@H]1C(N)=O.O [H-Tyr-D-Nle-Gly-Phe-Pro-NH2, L-Tyrosyl-D-norleucyl-glycyl-L-phenylalanyl-L-proline amide acetate hydrate] (H-Y[dNle]GFP-NH2) | 12 | 12 | 10

— patent publication US4288432A, “Novel enkephalin analogs and process for the preparation thereof” (Richter Gedeon Vegyeszeti Gyar Rt., priority 1979, dated 1981)
